The source of these data is patent US20240317706A1, “COMPOUNDS THAT MEDIATE PROTEIN DEGRADATION AND METHODS OF USE THEREOF” (Monte Rosa Therapeutics, Inc., priority 2021, published 2024).

The Dmax is the greatest extent of degradation seen.

Molecules are shown by their SMILES.

This experiment addresses T1, CDK2 (Homo sapiens, UniProt P24941).
T1 construct: HEK293 clonal lines with CRISPR KI HiBiT tag on CDK2 proteins; host or cells: HEK293 clonal line, CRISPR knock-in HiBiT-CDK2, stably expressing LgBiT
The experiment is described as follows: NanoBiT assay (CDK2 degradation). The note with it: HEK293, HEK293 clonal line with CRISPR KI HiBiT tag on CDK2, Endurazine live cell substrate, 24 hours. In kind it is cell-based. On the procedure: HEK293 clonal lines with CRISPR KI HiBiT tag on either CDK2 proteins and stably expressing LgBiT protein were obtained from Promega (Madison, WI). Cells were plated at 5000 cells per well using Multiflo (BioTek) in 384-well white solid bottom plates (Corning, 3570BC) in 25 ul volume in DMEM media (DMEM, high glucose, HEPES, no phenol red (ThermoFisher Scientific, 21063029)) containing 10% FBS (Corning, 35-075-CV), 1% Penicillin/Streptomycin ((ThermoFisher Scientific, 15140-122), and 1% Endurazine (Nano-Glo Endurazine Live Cell Substrate (Promega, N2571)). Cells were incubated for 16 hours at 37 C, 5% CO2. 75 nL of a compound at 30 μM were dosed into the plate using an Echo® 650 liquid handler (Labcyte). Cells were incubated at 37° C., 5% CO2 for 24 hours and then signal was read on a Pherastar FSX using “LUM plus” optic module.
Analysis was performed in Scinamic (Scinamic, Cambridge, MA). Luminescence response (R) was calculated by the formula: response=100*(S−N)/(P−N) where S is the signal of the well, N and P the mean negative and positive control values respectively of the same plate. The luminescence response was then fitted in Scinamic using a 3-parameter agonist logistic fit (hillslope=1, EC50>0, top/bottom unconstrained).
On the technique in general: With HiBiT, luminescence reflects the tagged protein that the partner subunit can reach.
Molecule `C[C@@H](OC(=O)NCc1ccc2c(c1)C(=O)N(C1CCC(=O)NC1=O)C2)C1CC12CC2` (stereo partly drawn) [Compound 71, (1R)-1-{spiro[2.2]pentan-1-yl}ethyl N-{[2-(2,6-dioxopiperidin-3-yl)-3-oxo-2,3-dihydro-1H-isoindol-5-yl]methyl}carbamate] gave a Dmax of no more than 10%. The same measure for `CC1(C)[C@@H]2C[C@@H](OC(=O)NCc3ccc4c(c3)C(=O)N(C3CCC(=O)NC3=O)C4)C[C@@H]21` (stereo partly drawn) [Compound 62, (1R,3s,5S)-6,6-dimethylbicyclo[3.1.0]hexan-3-yl N-{[2-(2,6-dioxopiperidin-3-yl)-3-oxo-2,3-dihydro-1H-isoindol-5-yl]methyl}carbamate]: 50 to 80%. The same measure for `O=C1CCC(N2Cc3ccc(CNC(=O)OC[C@H]4[C@@H]5COC[C@@H]54)cc3C2=O)C(=O)N1` (stereo partly drawn) [Compound 61, [(1R,5S,6R)-3-oxabicyclo[3.1.0]hexan-6-yl]methyl N-{[2-(2,6-dioxopiperidin-3-yl)-3-oxo-2,3-dihydro-1H-isoindol-5-yl]methyl}carbamate]: no more than 10%. For `COCC1(COC(=O)NCc2ccc3c(c2)C(=O)N(C2CCC(=O)NC2=O)C3)CCCC1` (stereo not shown) [Compound 57, [1-(methoxymethyl)cyclopentyl]methyl N-{[2-(2,6-dioxopiperidin-3-yl)-3-oxo-2,3-dihydro-1H-isoindol-5-yl]methyl}carbamate], the Dmax was no more than 10%. The result for `O=C1CCC(N2Cc3ccc(CNC(=O)OCC4CCCCS4)cc3C2=O)C(=O)N1` (stereo not shown) [Compound 53, (thian-2-yl)methyl N-{[2-(2,6-dioxopiperidin-3-yl)-3-oxo-2,3-dihydro-1H-isoindol-5-yl]methyl}carbamate] reads 10 to 50%. The result for `CC1(COC(=O)NCc2ccc3c(c2)C(=O)N(C2CCC(=O)NC2=O)C3)CCCCC1` (stereo not shown) [Compound 85, (1-methylcyclohexyl)methyl N-{[2-(2,6-dioxopiperidin-3-yl)-3-oxo-2,3-dihydro-1H-isoindol-5-yl]methyl}carbamate] reads 10 to 50%. The same measure for `CC(C)O[C@H]1C[C@@H](OC(=O)NCc2ccc3c(c2)C(=O)N(C2CCC(=O)NC2=O)C3)C1` (stereo partly shown) [Compound 55, (1s,3s)-3-(propan-2-yloxy)cyclobutyl N-{[2-(2,6-dioxopiperidin-3-yl)-3-oxo-2,3-dihydro-1H-isoindol-5-yl]methyl}carbamate]: 10 to 50%; for `CC1(C)C2CCC1(COC(=O)NCc1ccc3c(c1)C(=O)N(C1CCC(=O)NC1=O)C3)CC2` (stereo not shown) [Compound 63, {7,7-dimethylbicyclo[2.2.1]heptan-1-yl}methyl N-{[2-(2,6-dioxopiperidin-3-yl)-3-oxo-2,3-dihydro-1H-isoindol-5-yl]methyl}carbamate]: 10 to 50%; for `O=C1CCC(N2Cc3ccc(CNC(=O)OCC4CSC4)cc3C2=O)C(=O)N1` (stereo not shown) [Compound 60, (thietan-3-yl)methyl N-{[2-(2,6-dioxopiperidin-3-yl)-3-oxo-2,3-dihydro-1H-isoindol-5-yl]methyl}carbamate]: 10 to 50%. `C[C@@H]1CC[C@H](COC(=O)NCc2ccc3c(c2)C(=O)N(C2CCC(=O)NC2=O)C3)O1` (mixture of isomers) [Compound 68, rac-[(2R,5R)-5-methyloxolan-2-yl]methyl N-{[2-(2,6-dioxopiperidin-3-yl)-3-oxo-2,3-dihydro-1H-isoindol-5-yl]methyl}carbamate] came in with a Dmax of 10 to 50%.

In the case of `C[C@@H]1CCOC1COC(=O)NCc1ccc2c(c1)C(=O)N(C1CCC(=O)NC1=O)C2` (mixture of isomers) [Compound 76, rac-[(2R,3S)-3-methyloxolan-2-yl]methyl N-{[2-(2,6-dioxopiperidin-3-yl)-3-oxo-2,3-dihydro-1H-isoindol-5-yl]methyl}carbamate], the Dmax is no more than 10%. In the case of `O=C1CCC(N2Cc3ccc(CNC(=O)OCCC4CC4(F)F)cc3C2=O)C(=O)N1` (stereo not shown) [Compound 78, 2-(2,2-difluorocyclopropyl)ethyl N-{[2-(2,6-dioxopiperidin-3-yl)-3-oxo-2,3-dihydro-1H-isoindol-5-yl]methyl}carbamate], the Dmax is no more than 10%. The result for `CN(C(=O)OC(C)(C)C)C1CC(COC(=O)NCc2ccc3c(c2)C(=O)N(C2CCC(=O)NC2=O)C3)C1` (stereo not shown) [Compound 96, (3-{[(tert-butoxy)carbonyl](methyl)amino}cyclobutyl)methyl N-{[2-(2,6-dioxopiperidin-3-yl)-3-oxo-2,3-dihydro-1H-isoindol-5-yl]methyl}carbamate] reads 10 to 50%.

On to `O=C1CCC(N2Cc3ccc(CNC(=O)O[C@H]4C[C@@H]5C[C@H]4CC5(F)F)cc3C2=O)C(=O)N1` (mixture of isomers) [Compound 92, rac-(1R,2R,4R)-5,5-difluorobicyclo[2.2.1]heptan-2-yl N-{[2-(2,6-dioxopiperidin-3-yl)-3-oxo-2,3-dihydro-1H-isoindol-5-yl]methyl}carbamate], for which the Dmax is no more than 10%. The result for `O=C1CCC(N2Cc3ccc(CNC(=O)OC[C@@H]4C[C@H]4F)cc3C2=O)C(=O)N1` (mixture of isomers) [Compound 75, rac-[(1R,2S)-2-fluorocyclopropyl]methyl N-{[2-(2,6-dioxopiperidin-3-yl)-3-oxo-2,3-dihydro-1H-isoindol-5-yl]methyl}carbamate] reads no more than 10%; that for `CC1(COC(=O)NCc2ccc3c(c2)C(=O)N(C2CCC(=O)NC2=O)C3)CN(C2CC2)C1` (stereo not shown) [Compound 97, (1-cyclopropyl-3-methylazetidin-3-yl)methyl N-{[2-(2,6-dioxopiperidin-3-yl)-3-oxo-2,3-dihydro-1H-isoindol-5-yl]methyl}carbamate], no more than 10%. In turn, `CCC1(COC(=O)NCc2ccc3c(c2)C(=O)N(C2CCC(=O)NC2=O)C3)COC1` (stereo not shown) [Compound 42, (3-ethyloxetan-3-yl)methyl N-{[2-(2,6-dioxopiperidin-3-yl)-3-oxo-2,3-dihydro-1H-isoindol-5-yl]methyl}carbamate] yielded a Dmax of 10 to 50%.

Molecule `CC1CN(CCOC(=O)NCc2ccc3c(c2)C(=O)N(C2CCC(=O)NC2=O)C3)C1` (stereo not shown) [Compound 98, 2-(3-methylazetidin-1-yl)ethyl N-{[2-(2,6-dioxopiperidin-3-yl)-3-oxo-2,3-dihydro-1H-isoindol-5-yl]methyl}carbamate] displayed a Dmax of 10 to 50%.

The molecule `O=C1CCC(N2Cc3ccc(CNC(=O)OCC#CC4CC4)cc3C2=O)C(=O)N1` (stereo not shown) [Compound 44, 3-cyclopropylprop-2-yn-1-yl N-{[2-(2,6-dioxopiperidin-3-yl)-3-oxo-2,3-dihydro-1H-isoindol-5-yl]methyl}carbamate] gave a Dmax of 10 to 50%. The same measure for `O=C1CCC(N2Cc3ccc(CNC(=O)OCC4CCCS4(=O)=O)cc3C2=O)C(=O)N1` (stereo not shown) [Compound 82, (1,1-dioxo-1lambda6-thiolan-2-yl)methyl N-{[2-(2,6-dioxopiperidin-3-yl)-3-oxo-2,3-dihydro-1H-isoindol-5-yl]methyl}carbamate]: no more than 10%; for `CC1(C)OC[C@@H](COC(=O)NCc2ccc3c(c2)C(=O)N(C2CCC(=O)NC2=O)C3)O1` (stereo partly drawn) [Compound 87, [(4S)-2,2-dimethyl-1,3-dioxolan-4-yl]methyl N-{[2-(2,6-dioxopiperidin-3-yl)-3-oxo-2,3-dihydro-1H-isoindol-5-yl]methyl}carbamate]: no more than 10%; for `CC(=O)N1CCC(COC(=O)NCc2ccc3c(c2)C(=O)N(C2CCC(=O)NC2=O)C3)C1` (stereo not shown) [Compound 50, (1-acetylpyrrolidin-3-yl)methyl N-{[2-(2,6-dioxopiperidin-3-yl)-3-oxo-2,3-dihydro-1H-isoindol-5-yl]methyl}carbamate]: no more than 10%.
